Measured values from patent US6514970B1, “Urotensin-II receptor antagonists” (SmithKline Beecham Corporation, priority 1999, dated 2003).

Columns and labels:
human and rat GPR-14 = test: Radioligand binding ([125I] h-U-II, HEK-293 cell membranes); details: [125I] h-U-II binding to HEK-293 membranes with cloned GPR-14; species not given
Procedure: HEK-293 cell membranes containing stable cloned human and rat GPR-14 (20 ug/assay) were incubated with 200 pM [125I] h-U-II (200 Ci/mmol^−1 in the presence of increasing concentrations of test compounds in DMSO (0.1 nM to 10 uM), in a final incubation volume of 200 ul (20 mM Tris-HCl, 5 mM MgCl2). Incubation was done for 30 minutes at room temperature followed by filtration GF/B filters with Brandel cell harvester. ^125I labeled U-II binding was quantitated by gamma counting. Nonspecific binding was defined by ^125I U-II binding in the presence of 100 nM of unlabeled human U-II. Analysis of the data was performed by nonlinear least square fitting.

rat-isolated aorta = details: cited from earlier work

SMILES	Ki (human and rat GPR-14)	contractile activity (rat-isolated aorta)
CN(C)CCCOc1ccc(CN2CC[C@H](NC(=O)[C@H](Cc3ccccc3)NC(=O)c3ccc(Br)cc3)C2)cc1 [Example 15]	390 nM	
CC(C)[C@H](NC(=O)[C@@H]1CSSC[C@H](NC(=O)[C@H](CC(=O)O)NC(=O)[C@@H]2CCCN2C(=O)[C@@H](NC(=O)[C@@H](N)CCC(=O)O)[C@@H](C)O)C(=O)N[C@@H](Cc2ccccc2)C(=O)N[C@@H](Cc2c[nH]c3ccccc23)C(=O)N[C@@H](CCCCN)C(=O)N[C@@H](Cc2ccc(O)cc2)C(=O)N1)C(=O)O [Human Urotensin-II]		most potent contractile agonist identified to date
